Data from patent US8895004B2 (priority 2007, dated 2014).
Like-named read-outs stand apart in the source and are kept apart here.

How the values were obtained:
[1] = system: cells predominantly expressing presynaptic N-type calcium channels; format: cell-based, rat
hippocampal slice = test: Spontaneous synaptic currents in acute hippocampal slice, CA1 pyramidal cells; format: cell-based; details: mouse slice
Experimental: 400 μm thick slices were prepared from freshly dissected hippocampi of the mouse using a method known per se (Dingledine R. Brain Slices. New York: Plenum Press, 1983).

[2] = system: cultured hippocampal neurons; format: cell-based, rat
GABAA receptors = format: cell-based, rat
[3] = molecular target: T1, P/Q-type calcium channels (Rattus norvegicus, UniProt P54282); format: cell-based
T1 construct: Typical P/Q channel-mediated currents could be reliably elicited in somatic whole-cell recordings under our culture conditions; endogenous in cells; host or cells: cultured hippocampal neurons
T1 sequence (Q8CFG6 19-1157): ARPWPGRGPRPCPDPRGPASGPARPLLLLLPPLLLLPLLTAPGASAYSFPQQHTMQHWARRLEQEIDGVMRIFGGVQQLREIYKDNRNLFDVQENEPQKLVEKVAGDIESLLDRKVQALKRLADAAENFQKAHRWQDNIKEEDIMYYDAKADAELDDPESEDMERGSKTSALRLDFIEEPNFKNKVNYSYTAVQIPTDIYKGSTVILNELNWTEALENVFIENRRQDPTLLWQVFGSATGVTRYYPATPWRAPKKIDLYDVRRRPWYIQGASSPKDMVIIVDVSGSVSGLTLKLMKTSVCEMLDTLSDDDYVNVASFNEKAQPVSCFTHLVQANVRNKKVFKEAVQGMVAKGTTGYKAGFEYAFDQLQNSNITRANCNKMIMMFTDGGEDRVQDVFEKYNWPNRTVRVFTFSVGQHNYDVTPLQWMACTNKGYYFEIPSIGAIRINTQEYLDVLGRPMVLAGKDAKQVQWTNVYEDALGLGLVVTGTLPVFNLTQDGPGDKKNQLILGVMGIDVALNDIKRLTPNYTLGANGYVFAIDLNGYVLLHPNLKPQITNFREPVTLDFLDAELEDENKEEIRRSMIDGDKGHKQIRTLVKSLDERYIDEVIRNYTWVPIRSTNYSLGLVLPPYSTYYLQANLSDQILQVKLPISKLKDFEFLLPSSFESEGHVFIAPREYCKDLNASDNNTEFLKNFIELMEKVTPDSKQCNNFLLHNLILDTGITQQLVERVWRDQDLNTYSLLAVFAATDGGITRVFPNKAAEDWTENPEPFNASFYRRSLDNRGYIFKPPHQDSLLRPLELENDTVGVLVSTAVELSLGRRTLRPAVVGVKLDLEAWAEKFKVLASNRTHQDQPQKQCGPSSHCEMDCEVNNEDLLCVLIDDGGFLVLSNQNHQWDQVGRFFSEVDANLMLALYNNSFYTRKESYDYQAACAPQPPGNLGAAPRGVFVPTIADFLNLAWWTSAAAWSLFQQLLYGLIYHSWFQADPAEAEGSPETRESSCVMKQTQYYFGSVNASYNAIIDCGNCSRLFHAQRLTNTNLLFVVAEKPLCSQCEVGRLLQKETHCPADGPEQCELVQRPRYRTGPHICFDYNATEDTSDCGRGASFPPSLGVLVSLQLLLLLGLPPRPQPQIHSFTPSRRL
T1 sequence (P54282 whole entry): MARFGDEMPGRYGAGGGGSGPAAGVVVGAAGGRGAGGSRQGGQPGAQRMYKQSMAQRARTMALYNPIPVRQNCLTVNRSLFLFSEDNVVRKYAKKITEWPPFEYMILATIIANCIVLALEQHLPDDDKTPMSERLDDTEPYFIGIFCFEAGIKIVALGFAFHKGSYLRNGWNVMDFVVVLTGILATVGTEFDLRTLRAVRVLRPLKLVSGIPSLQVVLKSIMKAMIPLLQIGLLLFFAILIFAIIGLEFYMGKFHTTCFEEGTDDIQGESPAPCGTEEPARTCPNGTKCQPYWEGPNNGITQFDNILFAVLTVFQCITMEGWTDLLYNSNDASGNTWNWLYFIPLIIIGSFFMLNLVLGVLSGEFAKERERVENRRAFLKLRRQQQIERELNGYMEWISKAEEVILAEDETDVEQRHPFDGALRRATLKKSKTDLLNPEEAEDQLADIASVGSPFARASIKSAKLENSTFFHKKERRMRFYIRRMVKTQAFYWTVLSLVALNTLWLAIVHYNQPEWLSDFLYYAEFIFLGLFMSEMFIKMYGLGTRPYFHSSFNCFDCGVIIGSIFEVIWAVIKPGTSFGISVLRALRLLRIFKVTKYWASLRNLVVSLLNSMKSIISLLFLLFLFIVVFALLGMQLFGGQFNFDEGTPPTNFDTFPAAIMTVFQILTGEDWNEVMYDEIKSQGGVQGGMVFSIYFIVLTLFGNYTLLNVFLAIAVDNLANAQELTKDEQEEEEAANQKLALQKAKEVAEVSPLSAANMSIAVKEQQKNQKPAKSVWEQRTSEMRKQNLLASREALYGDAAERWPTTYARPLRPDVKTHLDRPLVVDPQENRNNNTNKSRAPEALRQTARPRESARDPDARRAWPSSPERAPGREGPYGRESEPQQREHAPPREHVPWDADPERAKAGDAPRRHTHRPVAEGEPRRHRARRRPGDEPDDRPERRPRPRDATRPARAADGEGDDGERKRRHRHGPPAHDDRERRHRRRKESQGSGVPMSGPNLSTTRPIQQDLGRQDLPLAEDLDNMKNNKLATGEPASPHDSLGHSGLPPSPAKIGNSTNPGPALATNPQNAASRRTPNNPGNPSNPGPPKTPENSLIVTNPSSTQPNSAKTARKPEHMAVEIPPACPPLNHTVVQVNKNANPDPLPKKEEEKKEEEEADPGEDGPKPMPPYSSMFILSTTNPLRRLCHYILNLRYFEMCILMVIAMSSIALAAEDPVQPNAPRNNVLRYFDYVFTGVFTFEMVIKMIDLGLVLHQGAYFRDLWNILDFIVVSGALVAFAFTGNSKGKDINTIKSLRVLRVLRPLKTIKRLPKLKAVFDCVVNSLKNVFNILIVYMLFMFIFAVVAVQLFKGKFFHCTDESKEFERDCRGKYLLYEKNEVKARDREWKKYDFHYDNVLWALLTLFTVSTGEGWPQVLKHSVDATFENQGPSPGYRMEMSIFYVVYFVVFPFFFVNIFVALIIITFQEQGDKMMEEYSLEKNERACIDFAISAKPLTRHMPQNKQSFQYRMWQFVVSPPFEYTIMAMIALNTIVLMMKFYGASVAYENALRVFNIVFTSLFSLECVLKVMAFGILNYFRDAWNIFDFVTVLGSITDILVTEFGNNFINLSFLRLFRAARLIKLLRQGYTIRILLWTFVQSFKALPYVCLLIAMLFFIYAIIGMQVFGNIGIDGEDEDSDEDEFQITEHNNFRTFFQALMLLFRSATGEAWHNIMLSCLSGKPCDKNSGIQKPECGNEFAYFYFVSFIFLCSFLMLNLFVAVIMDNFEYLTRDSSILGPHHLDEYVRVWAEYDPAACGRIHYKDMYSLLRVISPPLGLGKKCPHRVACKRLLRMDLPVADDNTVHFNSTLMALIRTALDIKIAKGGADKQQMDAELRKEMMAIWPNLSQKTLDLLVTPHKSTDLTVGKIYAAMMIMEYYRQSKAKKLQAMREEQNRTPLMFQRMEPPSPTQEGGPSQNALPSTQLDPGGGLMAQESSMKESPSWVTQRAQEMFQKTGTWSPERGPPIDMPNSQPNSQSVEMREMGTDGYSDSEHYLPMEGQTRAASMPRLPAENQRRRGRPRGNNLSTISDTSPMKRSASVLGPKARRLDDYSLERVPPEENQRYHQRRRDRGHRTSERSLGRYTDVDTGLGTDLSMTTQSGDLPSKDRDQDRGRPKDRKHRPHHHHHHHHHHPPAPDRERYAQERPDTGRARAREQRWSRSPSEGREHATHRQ
T1 sequence (P54283 whole entry, further chain): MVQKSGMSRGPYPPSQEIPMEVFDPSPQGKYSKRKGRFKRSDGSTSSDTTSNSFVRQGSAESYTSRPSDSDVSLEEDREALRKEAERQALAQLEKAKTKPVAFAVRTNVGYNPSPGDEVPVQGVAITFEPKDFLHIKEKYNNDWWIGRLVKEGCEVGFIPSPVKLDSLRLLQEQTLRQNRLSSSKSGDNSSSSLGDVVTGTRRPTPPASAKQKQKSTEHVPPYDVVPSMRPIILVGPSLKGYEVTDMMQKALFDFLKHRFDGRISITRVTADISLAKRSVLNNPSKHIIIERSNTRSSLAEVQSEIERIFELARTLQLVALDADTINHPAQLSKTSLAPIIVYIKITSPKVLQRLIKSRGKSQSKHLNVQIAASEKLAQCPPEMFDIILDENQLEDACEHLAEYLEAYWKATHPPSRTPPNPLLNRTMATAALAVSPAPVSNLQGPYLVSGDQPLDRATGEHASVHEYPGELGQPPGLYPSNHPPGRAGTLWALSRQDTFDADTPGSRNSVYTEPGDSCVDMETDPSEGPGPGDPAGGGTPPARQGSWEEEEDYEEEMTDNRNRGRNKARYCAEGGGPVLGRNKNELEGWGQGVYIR

L-type calcium currents = format: cell-based, rat
[4] = system: cultured hippocampal neurons; test: sPSC frequency at 1 mM and 4 mM extracellular Ca2+ after Aβ(1-42) globulomer; format: cell-based
Experimental: Spontaneous synaptic activity was measured in cultured hippocampal neurons using whole-cell voltage clamp techniques (Vhold=−70 mV). Under the ionic conditions used (ECl˜−10 mV) all synaptic events appeared as inward currents.
Currents recorded prior to the addition of the globulomer served as control describing basal synaptic transmission. Currents recorded in the interval immediately after application were analysed with respect to the control data. Afterwards, extracellular Ca^2+ was elevated from 1 mM to 4 mM (leaving the concentration of globulomer unchanged). Currents in the following 5 min recording interval were again analysed with respect to control data.

[5] = system: cultured hippocampal neurons
[6] = system: hippocampal slice cultures; test: Evoked synaptic transmission in hippocampal slice cultures after overnight incubation; details: globulomer approx. 1 μM monomer
[7] = globulomer, after elevation of Ca2+ to 4 mM

Q: What does the source list for “Aβ(1-42) globulomer: soluble, globular, non-covalent association of Aβ(1-42) peptides, apparent molecular weight 38/48 kDa, obtained as in Example 6b of WO2004/067561”?
A: spontaneous synaptic activity (frequency and amplitude) in N-dominated cells [1]: does not impair spontaneous synaptic activity; inhibition mechanism in hippocampal slice (hippocampal slice): also valid in situ; amplitude of the AP (baseline to peak) [2]: 110.9±16.7 mV; half-width time [2]: 4.0 ± 2.9 ms; input resistance [2]: 131.6±13.7 MΩ; maximal rate of repolarization [2]: 47.4±19.3 V/s; maximal rate of rise [2]: 84.2±50.0 V/s; threshold for firing [2]: −24.2±9.8 mV; GABA-induced inward currents (GABAA receptors): unaltered; amplitude of P/Q-type currents [3]: 62±7 % of control; maximal conductance (gmax) [3]: 27.2±3.2 nS; reversibility of P/Q-type current reduction [3]: partially reversible; slope Vc of steady-state activation [3]: −10.8±0.5 mV; slope Vc of steady-state inactivation [3]: −12.6±1.1 mV; steady-state activation Vh [3]: −17.3±1.3 mV; voltage at half-maximal inactivation [3]: 32.4±1.2 mV; L-type calcium current amplitude (L-type calcium currents): 573.0±225.6 pA; median amplitude of sPSCs ([4]; 1 mM Ca2+, globulomer): 97±5%; sPSC frequency ([4]; 1 mM Ca2+, globulomer approx. 1 μM monomer): 63±7 % of control; median amplitude of sPSCs [4, 7]: 98±6%; sPSC frequency [4, 7]: 77±13 % of control; amplitude of mEPSCs [5]: 96±3 % of control; amplitude of spontaneous EPSCs [5]: 79±4 % of control; amplitude of spontaneous EPSCs during washout [5]: 96±6%; amplitude of spontaneous IPSCs after withdrawal [5]: 94±2%; amplitude of synaptic currents after pre-incubation with ω-Agatoxin IVA [5]: 102±7; frequency of mIPSCs [5]: 52±10 % of control; frequency of mIPSCs after washout [5]: 68±12 % of control; frequency of mPSCs [5]: 56±9 % of control; frequency of mPSCs after washout [5]: 77±7.6 % of control; frequency of miniature EPSCs [5]: 57±9 % of control; frequency of miniature EPSCs after wash-out [5]: 54±8%; frequency of sPSCs after washout [5]: 61±16%; frequency of spontaneous EPSCs [5]: 14±4 % of control; frequency of spontaneous EPSCs during washout [5]: 52±19 % of control; frequency of spontaneously occurring IPSCs [5]: 64±5 % of control; frequency of synaptic currents after pre-incubation with ω-Agatoxin IVA [5]: 108±15%; mIPSC amplitude [5]: 81±6 % of control; mIPSC amplitude after washout [5]: 85±6%; median amplitude of mPSCs [5]: 30.2±5.2 pA; median amplitude of spontaneous IPSCs [5]: 82±2 % of control; evoked synaptic transmission [6]: strongly suppresses synaptic transmission

Q: Which results are given for “monomeric Aβ(1-42): synthetic monomeric Aβ(1-42) peptide (H-1368; Bachem) dissolved in 0.1% NaOH; likely a mixture of aggregation states”?
A: frequency of mPSCs ([5]; 1 μM monomer, TTX): 87±3 % of control; median amplitude of mPSCs ([5]; 1 μM monomer, TTX): 33.7±3.0 pA

Q: With “ω-agatoxin IVA (KKKCIAKDYGRCKWGGTPCCRGRGCICSIMGTNCECKPRLIMEGLGLA)” as the substance, how does the “spontaneous synaptic activity (frequency and amplitude) in N-dominated cells” value [1] read?
A: Its value is “does not impair spontaneous synaptic activity”.
